Laboratory results published in patent publication US5843937A (priority 1996, dated 1998).

Tests used:
[1] = prior compounds; experimental animals (CC-1065); cited from earlier work
[2] = both in vitro and in experimental animals; cited from earlier work
double-stranded B-DNA = conditions: cited from earlier work
U937 Cells = assay: Cytotoxicity of Invented Compounds Against U937 Cells; format: cell-based; conditions: 3H-thymidine last 24 h
Procedure: Some of the new compounds were tested for their cytotoxicity against cancer cells. U937 cells were used to determine the IC50 values. The assay was set up in triplicate in 96 well flat bottom microtiter plates. All cells are seeded at 5×10^3 cells/well in RPMI-1640 plus 10% FCS. Drugs were added and the total volume was adjusted to 0.2 mL/well. Total incubation time was 48 h with the addition of ^3 H-thymidine for the last 24 h of incubation. The assay was harvested and counted with the packard Matrix 96 beta counter. The results were expressed as the percent growth inhibition calculated from the percent decrease in cpm of treated cells relative to the untreated controls.

B16 Melanoma = assay: Cytotoxicity of Invented Compounds Against B16 Melanoma; format: cell-based; conditions: Mus musculus
[3] = test system: human liver cancer HepG2 cells; assay: Cytotoxicity of Mab-YW-242 conjugates against liver cancer HepG2 cells (3H-thymidine incorporation); format: cell-based; conditions: 1 h drug incubation, washed, overnight with 3H-thymidine, read-out: IC50 Values of the Mab-drug Conjugate
Procedure: Using such potent molecules for monoclonal antibody-drug conjugate has advantages over using low potency agents. The tumor specific antibody will carry these molecules specifically to tumor cells, thus enhancing the therapeutic efficacy of these compounds. The monoclonal antibody-drug conjugates are still very toxic to cancer cells. The Mab-YW-242 conjugates were tested in vitro against human liver cancer HepG2 cells. IC50 values for cell proliferation were determined by incorporation of ^3 H-thymidine.
The conjugates were tested in vitro against human liver cancer HepG2 cells. IC50 values for cell proliferation were determined by incorporation of ^3 H-thymidine. 4×10^4 of trypsinized cells in 0.1 mL of DMEM medium containing 10% of heat-inactivated FCS were added to each well of 96-well microtiter plates and incubated for 4 h at 37° C. to allow attachment of the cells. Drugs in 10 μL of PBS were added and incubated for 1 h at 37° C. Medium was removed and the cells were washed with PBS (0.2 mL). Fresh medium (0.1 mL) and ^3 H-thymidine (10 μL) were added. The cells were incubated overnight at 37° C. The cells were treated with trypsin-EDTA for 15 min at 37° C. and then harvested using a micromate 196 harvester. Radioactivity was counted and IC50 values were determined.

[4] = antitumor use; cited from earlier work
[5] = Homo sapiens, U-937, 48 h incubation

COc1c(O)c2c(c3cc(C(=O)N4CCc5c4c(O)c(OC)c4[nH]c(C(=O)N6CC7CC78C6=CC(=O)c6[nH]cc(C)c68)cc54)[nH]c13)CCN2C(N)=O (stereo not shown) [CC-1065]
delayed death [1]: causes delayed death in experimental animals | antitumor and antimicrobial activity [2]: potent antitumor and antimicrobial activity both in vitro and in experimental animals | alkylation site (double-stranded B-DNA; by its CPI left-hand unit): alkylates the N3 position of the 3'-adenine | sequence preference of DNA binding (double-stranded B-DNA; within the minor groove): 5'-d(A/GNTTA)-3' and 5'-d(AAAAA)-3'

COc1cccc2c1C(=O)c1c(O)c3c(c(O)c1C2=O)C[C@@](O)(C(=O)CO)C[C@@H]3O[C@H]1C[C@H](N)[C@H](O)[C@H](C)O1 [Doxorubicin, reference compound]
IC50 (U937 Cells; [5]): 100 nM | IC50 (B16 Melanoma): 780 nM | IC50 [3]: 6000 nM

COC(=O)c1c(C)[nH]c2c(OC(=O)N3CCN(C)CC3)cc3c(c12)[C@H](CBr)CN3C(=O)c1cc2cc(OC)c(OC)c(OC)c2[nH]1 [KW 2189]
delayed death [1]: do not cause delayed death

Cc1c[nH]c2c1[C@@]13C[C@@H]1CN(C(=O)c1cc4cc(NC(=O)c5cc6ccccc6o5)ccc4[nH]1)C3=CC2=O [U-73975]
delayed death [1]: do not cause delayed death

Cc1c[nH]c2c(O)cc3c(c12)[C@H](CCl)CN3C(=O)c1cc2cc(NC(=O)Nc3ccc4[nH]c(C(=O)N5C[C@@H](CCl)c6c5cc(O)c5[nH]cc(C)c65)cc4c3)ccc2[nH]1 [U-77779]
delayed death [1]: do not cause delayed death

CCN(CC)c1ccc2cc(C(=O)Nc3ccc4[nH]c(C(=O)N5C[C@@H](CCl)c6c5cc(OC(=O)Nc5ccccc5)c5[nH]cc(C)c65)cc4c3)oc2c1 [U-80244]
delayed death [1]: do not cause delayed death

CC(=O)Nc1cc(C(=O)N2CC(CCl)c3c2cc(O)c2ccccc32)n(C)c1 (stereo not shown) [YW-161, 3-[(4-Acetamino-1-methylpyrrole-2-yl)carbony:L]-1-(chloromethyl)-5-hydroxy-1,2-dihydro-3H-benz[e]indole]
IC50 (U937 Cells; 48 h incubation): 5 nM

CC(=O)Nc1ccc2[nH]c(C(=O)N3CC(CCl)c4c3cc(O)c3ccccc43)cc2c1 (stereo not shown) [YW-198, 3-[[5-(acetamino)-1H-indol-2'-yl]carbonyl]-1-(chloromethyl)-5-hydroxy-1,2-dihydro-3H-benz[e]indole]
IC50 (U937 Cells; [5]): 0.2 nM

CC(=O)Nc1ccc2[nH]c(C(=O)Nc3ccc4[nH]c(C(=O)N5CC(CCl)c6c5cc(O)c5ccccc65)cc4c3)cc2c1 (stereo not shown) [YW-200, 3-[[5-[[5-(Acetamino)-1H-indol-2-ylcarbonyl]amino]-1H-indol-2-yl]carbonyl]-1-(chloromethyl)-5-hydroxy-1,2-dihydro-3H-benz[e]indole]
IC50 (B16 Melanoma): 7.2 nM

CC(=O)Nc1ccc2oc(C(=O)Nc3ccc4[nH]c(C(=O)N5CC(CCl)c6c5cc(O)c5ccccc65)cc4c3)cc2c1 (stereo not shown) [YW-201, 3-[[5-[[5-(Acetamino)-1H-benzofuran-2-ylcarbonyl]amino]-1H-indol-2-yl]carbonyl]-1-(chloromethyl)-5-hydroxy-1,2-dihydro-3H-benz[e]indole]
IC50 (U937 Cells; [5]): 0.07 nM

CC(=O)Nc1ccc2[nH]c(C=CC(=O)N3CC(CCl)c4c3cc(O)c3ccccc43)cc2c1 (stereo not shown) [YW-202, 3-[[5-(acetamino)-1H-indol-2-yl]acrylyl]-1-(chloromethyl)-5-hydroxy-1,2-dihydro-3H-benz[e]indole]
IC50 (U937 Cells; [5]): 0.2 nM

CC(=O)Nc1ccc2oc(C(=O)Nc3ccc4[nH]c(C(=O)N5CC6CC67C5=CC(=O)c5ccccc57)cc4c3)cc2c1 (stereo not shown) [YW-213, N^2-[[5-[[[5-(Acetamino)-1H-benzofuran-2-yl]carbonyl]amino]-1H-indol-2-yl]carbonyl]1,2,9,9a-tetrahydrocyclopropa[c]-benz[e]indol-4-one]
IC50 (U937 Cells; [5]): 0.2 nM

O=C(C=Cc1cc2ccccc2o1)Nc1ccc2[nH]c(C(=O)N3CC(CCl)c4c3cc(O)c3ccccc43)cc2c1 (stereo not shown) [YW-215, 3-[[5-[(1H-Benzofuran-2-ylacrylyl)amino]-1H-indol-2-yl]carbony 1]-1-(chloromethyl)-5-hydroxy-1,2-dihydro-3H-benz[e]indole]
IC50 (U937 Cells; 48 h incubation): 0.09 nM

CCCC(=O)Nc1cc(C=CC(=O)N2CC(CCl)c3c2cc(O)c2ccccc32)n(C)c1 (stereo not shown) [YW-222, 3-(4-Butyramido-1-methyl-2-pyrroleacryloylcarbonyl)-1-(chloromethyl)-5-hydroxy-1,2-dihydro-3H-benz[e]indole]
IC50 (U937 Cells; [5]): 0.5 nM

O=C(CCCO)Nc1ccc2[nH]c(C(=O)N3CC(CCl)c4c3cc(O)c3ccccc43)cc2c1 (stereo not shown) [YW-231, 3-[[5-[(4-Hydroxy)butyramino]-1H-indol-2'-yl]carbonyl]-1-(chloromethyl)-5-hydroxy-1,2-dihydro-3H-benz[e]indole]
IC50 (U937 Cells; [5]): 0.6 nM | IC50 (B16 Melanoma): 4 nM

O=C(CCCC[C@@H]1SC[C@@H]2NC(=O)N[C@@H]21)Nc1ccc2[nH]c(C(=O)N3CC(CCl)c4c3cc(O)c3ccccc43)cc2c1 (stereo partly shown) [YW-235, 3-[[5-(Biotin-amino)-1H-indol-2'-yl]carbonyl]-1-(chloromethyl)-5-hydroxy-1,2-dihydro-3H-benz[e]indole]
IC50 (U937 Cells; [5]): 0.7 nM

Nc1ccc2[nH]c(C(=O)N3CC(CCl)c4c3cc(O)c3ccccc43)cc2c1 (stereo not shown) [YW-242, 3-[(5-Amino-1H-indol-2'-yl)carbonyl]-1-(chloromethyl)-5-hydroxy-1,2-dihydro-3H-benz[e]indole]
IC50 (U937 Cells; [5]): 0.09 nM | IC50 (B16 Melanoma): 11 nM | IC50 [3]: 200 nM

COC(=O)[C@H]1O[C@@H](OCCCC(=O)Nc2ccc3[nH]c(C(=O)N4CC(CCl)c5c4cc(O)c4ccccc54)cc3c2)[C@H](OC(C)=O)[C@@H](OC(C)=O)[C@@H]1OC(C)=O (stereo partly drawn) [YW-247, 3-[[5-[4-(Methyl 2,3,4-tri-O-acetyl-1-deoxy-b-D-glucuronate)butyramino]-1H-indol-2'-yl]carbonyl]-1-(chloromethyl)-5-hydroxy-1,2-dihydro-3H-benz[e]indole]
IC50 (U937 Cells; [5]): 1.4 nM

COC(=O)[C@H]1O[C@@H](OCCCC(=O)Nc2ccc3[nH]c(C(=O)Nc4ccc5[nH]c(C(=O)N6CC(CCl)c7c6cc(O)c6ccccc76)cc5c4)cc3c2)[C@H](OC(C)=O)[C@@H](OC(C)=O)[C@@H]1OC(C)=O (stereo partly drawn) [YW-249, 3-[[5-[[5-[4-(Methyl 2,3,4-tri-O-acetyl-1-deoxy-b-D-glucuronate)butyramino]-1H-indol-2-ylcarbonyl]amino]-1H-indol-2-yl]carbony 1]-1-(chloromethyl)-5-hydroxy-1,2-dihydro-3H-benz[e]indole]
IC50 (U937 Cells; [5]): 0.55 nM

O=C(CCCO)Nc1ccc2[nH]c(C(=O)Nc3ccc4[nH]c(C(=O)N5CC(CCl)c6c5cc(O)c5ccccc65)cc4c3)cc2c1 (stereo not shown) [YW-254, 3-[[5-[[5-[4-(Hydroxy)butyramino]-1H-indol-2-ylcarbonyl]amino]-1H-indol-2-yl]carbonyl]-1-(chloromethyl)-5-hydroxy-1,2-dihydro-3H-benz[e]indole]
IC50 (U937 Cells; [5]): 0.1 nM

COC(=O)[C@H]1O[C@@H](OCCCC(=O)Nc2ccc3[nH]c(C(=O)Nc4ccc5[nH]c(C(=O)Nc6ccc7[nH]c(C(=O)N8CC(CCl)c9c8cc(O)c8ccccc98)cc7c6)cc5c4)cc3c2)[C@H](OC(C)=O)[C@@H](OC(C)=O)[C@@H]1OC(C)=O (stereo partly drawn) [YW-258, 3-[[5-[[5-[[5-[4-(Methyl 2,3,4-tri-O-acetyl-1-deoxy-b-D-glucuronate)butyramino]-1H-indo 1-2-ylcarbonyl]amino]-1H-indol-2-ylcarbonyl]amino]-1H-indol-2-yl]carbonyl]-1-(chloromethyl)-5-hydroxy-1,2-dihydro-3H-benz[e] indole]
IC50 (U937 Cells; [5]): 0.08 nM

O=C(CCCO)Nc1ccc2[nH]c(C(=O)Nc3ccc4[nH]c(C(=O)Nc5ccc6[nH]c(C(=O)N7CC(CCl)c8c7cc(O)c7ccccc87)cc6c5)cc4c3)cc2c1 (stereo not shown) [YW-259]
IC50 (U937 Cells; [5]): 0.09 nM

Cn1cc(N)cc1C(=O)N1CC(CCl)c2c1cc(O)c1ccccc21 (stereo not shown) [YW-284, 3-[(4-Amino-1-methylpyrrole-2-yl)carbonyl]-1-(chloromethyl)-5-hydroxy-1,2-dihydro-3H-benz[e]indole]
IC50 (U937 Cells; [5]): 9 nM

O=C(Cc1cccs1)N[C@@H]1C(=O)N2C(C(=O)O)=C(COC(=O)Nc3ccc4[nH]c(C(=O)N5CC(CCl)c6c5cc(O)c5ccccc65)cc4c3)C[S+]([O-])[C@H]12 (stereo partly shown) [YW-285]
IC50 (U937 Cells; [5]): 0.9 nM

Cn1cc(NC(=O)c2cc(NC(=O)c3cc(NC=O)cn3C)cn2C)cc1C(=O)NCCC(=N)N [distamycin]
therapeutic efficacy [4]: low therapeutic efficacy

Cn1cc(NC(=O)c2cc(NC(=O)CN=C(N)N)cn2C)cc1C(=O)NCCC(=N)N [netropsin]
therapeutic efficacy [4]: low therapeutic efficacy
